The results in this text go back to PubChem BioAssay AID248 (DTP/NCI, 2004).

In this assay the test system is L1210 leukemia ip in BDF1 mice, survival T/C. Nature of the assay: NCI In Vivo Anticancer Drug Screen. Data for tumor model L1210 Leukemia (intraperitoneal) in B6D2F1 (BDF1) mice. The settings on record: endpoint: mean survival time, higher = longer survival. The procedure, abridged: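 Tumor was transplanted into mice, which were then dosed with test compound or vehicle alone. Survival was recorded for each group, and the treated figure was expressed relative to the control figure.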

Setting [1] is: dose: 60.0 mg/kg/injection, schedule: Q01DX001 (ip), vehicle: other.
Setting [2] is: dose: 100.0 mg/kg/injection, schedule: Q01DX009 (ip), vehicle: Klucel (hydroxypropylcellulose) (HPC).
The mark [3] stands for this setting: dose: 100.0 mg/kg/injection, schedule: Q04DX003 (ip), vehicle: Klucel (hydroxypropylcellulose) (HPC).
The mark [4] stands for this setting: dose: 200.0 mg/kg/injection, schedule: Q04DX003 (ip), vehicle: Klucel (hydroxypropylcellulose) (HPC).
Where [5] appears, read: dose: 400.0 mg/kg/injection, schedule: Q01DX009 (ip), vehicle: Klucel (hydroxypropylcellulose) (HPC).
Where [6] appears, read: dose: 400.0 mg/kg/injection, schedule: Q04DX003 (ip), vehicle: Klucel (hydroxypropylcellulose) (HPC).
[7] abbreviates: dose: 100.0 mg/kg/injection, schedule: Q04DX003 (ip), vehicle: saline with Tween-80.
[8] abbreviates: dose: 200.0 mg/kg/injection, schedule: Q04DX003 (ip), vehicle: saline with Tween-80.
The mark [9] stands for this setting: dose: 400.0 mg/kg/injection, schedule: Q04DX003 (ip), vehicle: saline with Tween-80.
The mark [10] stands for this setting: dose: 100.0 mg/kg/injection, schedule: Q04DX002 (ip), vehicle: saline with Tween-80.
[11] abbreviates: dose: 200.0 mg/kg/injection, schedule: Q04DX002 (ip), vehicle: saline with Tween-80.
Where [12] appears, read: dose: 100.0 mg/kg/injection, schedule: Q01DX001 (ip), vehicle: Klucel (hydroxypropylcellulose) (HPC).
The mark [13] stands for this setting: dose: 200.0 mg/kg/injection, schedule: Q01DX001 (ip), vehicle: Klucel (hydroxypropylcellulose) (HPC).

Each structure is given as a SMILES string. Several values for one entry are separate records, joined by “and”; a condition that tells them apart may be missing. Identical values can stand only once. Inconclusive results and toxic doses are left out.

Regarding `CCOCCOCCOC(C)Oc1ccccc1OC` (stereo not given), the T/C reads like this: (dose: 100.0 mg/kg/injection, schedule: Q04DX002 (ip), vehicle: saline) 111 % of control; (dose: 200.0 mg/kg/injection, schedule: Q04DX002 (ip), vehicle: saline) 96 % of control; (dose: 400.0 mg/kg/injection, schedule: Q04DX002 (ip), vehicle: saline) 114 % of control.

Consider `O=NN(CCF)C(=O)NC1CCC(NC(=O)N(CCF)N=O)CC1` (stereo not given), for which the T/C reads like this: (dose: 16.0 mg/kg/injection, schedule: Q01DX001 (ip), vehicle: carboxymethylcellulose (CMC)) 151 % of control; (dose: 30.0 mg/kg/injection, schedule: Q01DX001 (ip), vehicle: other) 190 % of control; (dose: 31.0 mg/kg/injection, schedule: Q01DX001 (ip), vehicle: carboxymethylcellulose (CMC)) 176 % of control; (dose: 50.0 mg/kg/injection, schedule: Q01DX001 (ip), vehicle: other) 220 % of control; under setting [1], 294 % of control; (dose: 62.0 mg/kg/injection, schedule: Q01DX001 (ip), vehicle: carboxymethylcellulose (CMC)) 336 % of control. The T/C (dose: 80.0 mg/kg/injection, schedule: Q01DX001 (ip), vehicle: other) is 300 % of control; the T/C (dose: 120.0 mg/kg/injection, schedule: Q01DX001 (ip), vehicle: other) was 315 % of control and 340 % of control; the T/C (dose: 125.0 mg/kg/injection, schedule: Q01DX001 (ip), vehicle: carboxymethylcellulose (CMC)) was 357 % of control; the T/C (dose: 180.0 mg/kg/injection, schedule: Q01DX001 (ip), vehicle: other) is 340 % of control; the T/C (dose: 240.0 mg/kg/injection, schedule: Q01DX001 (ip), vehicle: other) is 298 % of control; the T/C (dose: 250.0 mg/kg/injection, schedule: Q01DX001 (ip), vehicle: carboxymethylcellulose (CMC)) is 357 % of control. Also, the T/C by setting is: (dose: 375.0 mg/kg/injection, schedule: Q01DX001 (ip), vehicle: carboxymethylcellulose (CMC)) 276 % of control; (dose: 500.0 mg/kg/injection, schedule: Q01DX001 (ip), vehicle: carboxymethylcellulose (CMC)) 271 % of control; (dose: 750.0 mg/kg/injection, schedule: Q01DX001 (ip), vehicle: carboxymethylcellulose (CMC)) 175 % of control; (dose: 1000.0 mg/kg/injection, schedule: Q01DX001 (ip), vehicle: carboxymethylcellulose (CMC)) 175 % of control.

Regarding `O=NN(CCCl)C(=O)NC1CCSc2ccccc21` (stereo not given), the T/C runs as follows: (dose: 18.0 mg/kg/injection, schedule: Q01DX001 (ip), vehicle: other) 170 % of control and 182 % of control and 219 % of control; (dose: 26.0 mg/kg/injection, schedule: Q01DX001 (ip), vehicle: other) 232 % of control; (dose: 27.0 mg/kg/injection, schedule: Q01DX001 (ip), vehicle: other) 306 % of control and 315 % of control; (dose: 40.0 mg/kg/injection, schedule: Q01DX001 (ip), vehicle: other) 323 % of control and 340 % of control and 356 % of control; under setting [1], 289 % of control and 313 % of control and 365 % of control; (dose: 187.5 mg/kg/injection, schedule: Q01DX001 (ip), vehicle: other) 96 % of control.

As to `CCCCCCCC(=O)N(C)OC`, the T/C reads like this: under setting [2], 97 % of control; under setting [3], 89 % of control; under setting [4], 94 % of control; under setting [5], 100 % of control; under setting [6], 92 % of control.

`Cc1ccc(OC(=O)/C=C/C(=O)Oc2ccc(C)cc2)cc1`: the T/C was 97 % of control under setting [2]; 105 % of control under setting [3]; 95 % of control (dose: 200.0 mg/kg/injection, schedule: Q01DX009 (ip), vehicle: Klucel (hydroxypropylcellulose) (HPC)); 98 % of control under setting [4]; 88 % of control under setting [5]; 108 % of control under setting [6].

Turning to `COc1ccc(C(C)c2ccc(OC)cc2)cc1`, the T/C is 93 % of control under setting [7], 95 % of control under setting [8] and 91 % of control under setting [9].

Take `O=C(O)C(Br)C(Br)C(=O)Nc1ccc(F)cc1` (stereo not given): the T/C under setting [10] is 104 % of control and the T/C under setting [11] is 93 % of control.

In the case of `CC(=O)CC(C)(C)c1ccccc1`, the T/C was 100 % of control under setting [12]; 103 % of control (dose: 100.0 mg/kg/injection, schedule: Q01DX009 (ip), vehicle: saline); 103 % of control (dose: 100.0 mg/kg/injection, schedule: Q04DX003 (ip), vehicle: saline); 95 % of control under setting [13]; 101 % of control (dose: 200.0 mg/kg/injection, schedule: Q01DX009 (ip), vehicle: saline); 100 % of control (dose: 200.0 mg/kg/injection, schedule: Q04DX003 (ip), vehicle: saline). For the same compound, the T/C (dose: 400.0 mg/kg/injection, schedule: Q01DX001 (ip), vehicle: Klucel (hydroxypropylcellulose) (HPC)) was 94 % of control and the T/C (dose: 400.0 mg/kg/injection, schedule: Q04DX003 (ip), vehicle: saline) was 111 % of control.

For the compound `CCCCCCCCCCCC(=O)Nc1ccc(SSc2ccc(NC(=O)CCCCCCCCCCC)cc2)cc1`, the T/C by setting is: (dose: 50.0 mg/kg/injection, schedule: Q01DX001 (ip), vehicle: carboxymethylcellulose (CMC)) 97 % of control; (dose: 100.0 mg/kg/injection, schedule: Q01DX001 (ip), vehicle: carboxymethylcellulose (CMC)) 103 % of control; (dose: 200.0 mg/kg/injection, schedule: Q01DX001 (ip), vehicle: carboxymethylcellulose (CMC)) 90 % of control; (dose: 400.0 mg/kg/injection, schedule: Q01DX001 (ip), vehicle: carboxymethylcellulose (CMC)) 101 % of control.

As to `COC(=O)C(CCC(=O)O)NC(=O)OCc1ccccc1` (stereo not given), the T/C runs as follows: (dose: 25.0 mg/kg/injection, schedule: Q01DX009 (ip), vehicle: Klucel (hydroxypropylcellulose) (HPC)) 89 % of control; (dose: 50.0 mg/kg/injection, schedule: Q01DX001 (ip), vehicle: Klucel (hydroxypropylcellulose) (HPC)) 94 % of control; (dose: 50.0 mg/kg/injection, schedule: Q01DX009 (ip), vehicle: Klucel (hydroxypropylcellulose) (HPC)) 97 % of control; under setting [12], 103 % of control; under setting [3], 96 % of control; under setting [13], 97 % of control. Further, the T/C under setting [4] was 86 % of control.

`CON(C)C(=O)N1c2ccccc2Sc2ccccc21`: the T/C by setting is: (dose: 25.0 mg/kg/injection, schedule: Q04DX002 (ip), vehicle: saline with Tween-80) 88 % of control; (dose: 50.0 mg/kg/injection, schedule: Q04DX002 (ip), vehicle: saline with Tween-80) 95 % of control; under setting [10], 103 % of control; under setting [11], 95 % of control.

On to `CN(C(=O)C1CCCCC1)C1CCCCC1O` (stereo not given), for which the T/C (dose: 50.0 mg/kg/injection, schedule: Q01DX009 (ip), vehicle: saline with Tween-80) was 101 % of control; the T/C (dose: 100.0 mg/kg/injection, schedule: Q01DX009 (ip), vehicle: saline with Tween-80) is 93 % of control; the T/C (dose: 200.0 mg/kg/injection, schedule: Q01DX009 (ip), vehicle: saline with Tween-80) was 90 % of control.

On to `NC(=O)c1cccc([N+](=O)[O-])c1`, for which the T/C is 101 % of control under setting [7], 95 % of control under setting [8] and 93 % of control under setting [9].

Take `CCOC(=O)C1CCC/C1=N\N=C(N)N` (stereo not given) (tested in a mixture with another compound): the T/C reads like this: (dose: 15.0 mg/kg/injection, schedule: Q01DX Z (ip), vehicle: methylcellulose (MC)) 95 % of control; (dose: 30.0 mg/kg/injection, schedule: Q01DX Z (ip), vehicle: methylcellulose (MC)) 102 % of control; (dose: 60.0 mg/kg/injection, schedule: Q01DX Z (ip), vehicle: methylcellulose (MC)) 104 % of control; (dose: 60.0 mg/kg/injection, schedule: Q01DX Z (oral), vehicle: methylcellulose (MC)) 86 % of control; (dose: 120.0 mg/kg/injection, schedule: Q01DX Z (ip), vehicle: methylcellulose (MC)) 97 % of control; (dose: 120.0 mg/kg/injection, schedule: Q01DX Z (oral), vehicle: methylcellulose (MC)) 94 % of control. For the same compound, the T/C (dose: 240.0 mg/kg/injection, schedule: Q01DX Z (oral), vehicle: methylcellulose (MC)) was 92 % of control.

For `CC1=NN(c2ccccc2)C(=O)CC1`, the T/C is 106 % of control under setting [3], 100 % of control under setting [4] and 105 % of control under setting [6].
